Test results as given in patent US20180221306A1, “PHARMACEUTICAL COMPOSITIONS OF 5-HYDROXY-2-METHYLNAPHTHALENE-1,4-DIONE” (PellFiCure Pharmaceuticals, Inc., priority 2016, published 2018).
Values after ≈ are worked out from the molar mass of the structure shown. Marks after values point to notes of the source that are not given here.

Experiments:
[1] = system: mice; settings: over a period of 14 days; cited from earlier work
[2] = physchem; format: physicochemical; settings: for solubility thermodynamic: 25 °C, thermodynamic from solid
Experimental: The maximum quantity of Compound I that can be completely dissolved at 25° C. in the several aqueous buffers and other solvents was evaluated using HPLC. […] Samples were injected with a 250 μg/ml nominal concentration. For samples of unknown concentration, dilutions were made to target the linear range of the method. All samples were quantified based on a linear standard curve. Measurements were performed by Pharmatek Laboratories, Inc. (San Diego, Calif.) with industry-standard quality controls.

[3] = Forced degradation: stability of Compound I formulations in selected solvents and Carrier A (HPLC)
[4] = 10% HPβCD, 25° C./60% RH, t = 2 week

## CC1=CC(=O)c2c(O)cccc2C1=O [Compound I, 5-hydroxy-2-methylnaphthalene-1,4-dione]
[1]
  LD50: 8 mg/kg
[2]
  Solubility in Carrier A: well soluble
  Solubility in aqueous media: mostly insoluble
  Solubility in mixtures of triacylglycerols: good solubility
  Solubility in organic solvents: good solubility
[2]; pH 1, aqueous buffer
  solubility thermodynamic: 48 µg/mL (≈ 255 µM)
[2]; pH 2, aqueous buffer
  solubility thermodynamic: 45 µg/mL (≈ 239 µM)
[2]; pH 3, aqueous buffer
  solubility thermodynamic: 49 µg/mL (≈ 260 µM)
[2]; pH 4, aqueous buffer
  solubility thermodynamic: 16 µg/mL (≈ 85 µM)
[2]; pH 5, aqueous buffer
  solubility thermodynamic: 46 µg/mL (≈ 244 µM)
[2]; pH 6, aqueous buffer
  solubility thermodynamic: 44 µg/mL (≈ 234 µM)
[2]; pH 7, aqueous buffer
  solubility thermodynamic: 49 µg/mL (≈ 260 µM)
[2]; pH 8, aqueous buffer
  solubility thermodynamic: 43 µg/mL (≈ 229 µM)
[2]; pH 9, aqueous buffer
  solubility thermodynamic: 75 µg/mL (≈ 399 µM)
[2]; pH 10, aqueous buffer
  solubility thermodynamic: 240 µg/mL (≈ 1280 µM)
[2]; water
  solubility thermodynamic: 72 µg/mL (≈ 383 µM)
[3]; 1% TW20, 25° C./60% RH, t = 0
  Solution Stability in Selected Solvents, Purity: 97.00 % Area
[3]; 1% TW20, 25° C./60% RH, t = 1 week, precipitation observed
  Solution Stability in Selected Solvents, Purity: 64.23^‡ % Area
[3]; 1% TW20, 25° C./60% RH, t = 2 week, precipitation observed
  Solution Stability in Selected Solvents, Purity: 50.47^‡ % Area
[3]; 1% TW20, 40° C./75% RH, t = 1 week, precipitation observed
  Solution Stability in Selected Solvents, Purity: 47.19^‡ % Area
[3]; 1% TW20, 40° C./75% RH, t = 2 week, precipitation observed
  Solution Stability in Selected Solvents, Purity: 41.25^‡ % Area
[3]; 1% TW80, 25° C./60% RH, t = 0
  Solution Stability in Selected Solvents, Purity: 95.11 % Area
[3]; 1% TW80, 25° C./60% RH, t = 1 week, precipitation observed
  Solution Stability in Selected Solvents, Purity: 57.32^‡ % Area
[3]; 1% TW80, 25° C./60% RH, t = 2 week, precipitation observed
  Solution Stability in Selected Solvents, Purity: 47.62^‡ % Area
[3]; 1% TW80, 40° C./75% RH, t = 1 week, precipitation observed
  Solution Stability in Selected Solvents, Purity: 42.07^‡ % Area
[3]; 1% TW80, 40° C./75% RH, t = 2 week, precipitation observed
  Solution Stability in Selected Solvents, Purity: 40.53^‡ % Area
[3]; 10% HPβCD, 25° C./60% RH, t = 0
  Solution Stability in Selected Solvents, Purity: 99.49 % Area
[3]; 10% HPβCD, 25° C./60% RH, t = 1 week
  Solution Stability in Selected Solvents, Purity: 97.41 % Area
[3]; [4]
  Solution Stability in Selected Solvents, % Potency: 91.09%
  Solution Stability in Selected Solvents, Purity: 94.73 % Area
[3]; 10% HPβCD, 40° C./75% RH, t = 1 week
  Solution Stability in Selected Solvents, Purity: 91.22 % Area
[3]; 10% HPβCD, 40° C./75% RH, t = 2 week
  Solution Stability in Selected Solvents, Purity: 87.69 % Area
[3]; ACN, 25° C./60% RH, t = 0
  Solution Stability in Selected Solvents, Purity: 95.56 % Area
[3]; ACN, 25° C./60% RH, t = 1 week
  Solution Stability in Selected Solvents, Purity: 93.35 % Area
[3]; ACN, 25° C./60% RH, t = 2 week
  Solution Stability in Selected Solvents, Purity: 91.03 % Area
[3]; ACN, 40° C./75% RH, t = 1 week
  Solution Stability in Selected Solvents, Purity: 93.33 % Area
[3]; ACN, 40° C./75% RH, t = 2 week
  Solution Stability in Selected Solvents, Purity: 93.59 % Area
[3]; Acetone, 25° C./60% RH, t = 0
  Solution Stability in Selected Solvents, Purity: 94.35 % Area
[3]; Acetone, 25° C./60% RH, t = 1 week
  Solution Stability in Selected Solvents, Purity: 93.49 % Area
[3]; Acetone, 25° C./60% RH, t = 2 week
  Solution Stability in Selected Solvents, Purity: 92.27 % Area
[3]; Acetone, 40° C./75% RH, t = 1 week
  Solution Stability in Selected Solvents, Purity: 91.94 % Area
[3]; Acetone, 40° C./75% RH, t = 2 week
  Solution Stability in Selected Solvents, Purity: 91.52 % Area
[3]; Carrier A (NF), 25° C./60% RH, t = 3 day
  Stability of the formulation in Carrier A (sesame oil), Purity: 99.2 Area - %
[3]; Carrier A (NF), 25° C./60% RH, t = 10 day
  Stability of the formulation in Carrier A (sesame oil), Purity: 99.4 Area - %
[3]; Carrier A (NF), 40° C./75% RH, t = 3 day
  Stability of the formulation in Carrier A (sesame oil), Purity: 98.9 Area - %
[3]; Carrier A (NF), 40° C./75% RH, t = 10 day
  Stability of the formulation in Carrier A (sesame oil), Purity: 99.2 Area - %
[3]; Carrier A (NF: laboratory grade), t = 0, reported from a representative standard
  Stability of the formulation in Carrier A (sesame oil), Purity: 99.7 Area - %
[3]; Carrier A (SR), 25° C./60% RH, t = 3 day
  Stability of the formulation in Carrier A (sesame oil), Purity: 99.5 Area - %
[3]; Carrier A (SR), 25° C./60% RH, t = 10 day
  Stability of the formulation in Carrier A (sesame oil), Purity: 99.5 Area - %
[3]; Carrier A (SR), 40° C./75% RH, t = 3 day
  Stability of the formulation in Carrier A (sesame oil), Purity: 99.3 Area - %
[3]; Carrier A (SR), 40° C./75% RH, t = 10 day
  Stability of the formulation in Carrier A (sesame oil), Purity: 99.3 Area - %
[3]; Carrier A (SR: super refined grade), t = 0, reported from a representative standard
  Stability of the formulation in Carrier A (sesame oil), Purity: 99.7 Area - %
[3]; DCM, 25° C./60% RH, t = 0
  Solution Stability in Selected Solvents, Purity: 92.84 % Area
[3]; DCM, 25° C./60% RH, t = 1 week
  Solution Stability in Selected Solvents, Purity: 93.85 % Area
[3]; DCM, 25° C./60% RH, t = 2 week
  Solution Stability in Selected Solvents, Purity: 92.99 % Area
[3]; DCM, 40° C./75% RH, t = 1 week
  Solution Stability in Selected Solvents, Purity: 91.88 % Area
[3]; DCM, 40° C./75% RH, t = 2 week
  Solution Stability in Selected Solvents, Purity: 81.23 % Area
